What was measured:
[1] = test system: rhodopsin-expressing photoreceptors; test: A2E-induced stress, rhodopsin-labeled photoreceptor count in mature retinal cell culture; type: cell-based, Porcine
Excerpt: (§1) Porcine eyes were obtained from Kapowsin Meats, Inc. (Graham, Wash.). Eyes were enucleated, and muscle and tissue were cleaned away from the orbit. Eyes were cut in half along their equator and the neural retina was dissected from the anterior part of the eye in buffered saline solution, according to standard methods known in the art. Briefly, the retina, ciliary body, and vitreous were dissected away from the anterior half of the eye in one piece, and the retina was gently detached from the clear vitreous. Each retina was dissociated with papain (Worthington Biochemical Corporation, Lakewood, N.J.), followed by inactivation with fetal bovine serum (FBS) and addition of 134 Kunitz units/ml of DNaseI. […]
(§2) Cultures were analyzed by counting rhodopsin-labeled photoreceptors and NFM-labeled ganglion cells using an Olympus IX81 or CZX41 microscope (Olympus, Tokyo, Japan). Twenty fields of view were counted per coverslip with a 20× objective lens. Six coverslips were analyzed by this method for each condition in each experiment. Cells that were not exposed to any stressor were counted, and cells exposed to a stressor were normalized to the number of cells in the control. […]
(§3) Immunocytochemical analysis was performed and the data analyzed as described in Examples 1 and 2.

[2] = test system: NFM-expressing ganglion cells; test: A2E-induced stress, NFM-labeled ganglion cell count in mature retinal cell culture; type: cell-based, Porcine
Excerpt: as §1, §2, §3

[3] = test system: rhodopsin-expressing photoreceptors; test: EPO effect on photoreceptor survival under A2E stress in retinal cell culture; type: cell-based, Porcine; conditions: A2E 25 μM for 24 hours, no EPO; FIG. 13
Excerpt: as §1
Cultures were analyzed by counting rhodopsin-labeled photoreceptors and NFM-labeled ganglion cells using an Olympus IX81 or CZX41 microscope (Olympus, Tokyo, Japan). Twenty fields of view were counted per coverslip with a 20× objective lens. Six coverslips were analyzed by this method for each condition in each experiment. Cells that were not exposed to either EPO or to any stressor were counted, and cells exposed to a stressor with or without treatment with EPO were normalized to the number of cells in the control. […]

[4] = test system: bovine retinal pigment epithelial cells; conditions: bovine RPE cells; cited from earlier work

Row | SMILES | death of photoreceptor cells compared to photoreceptor cells not exposed to A2E ([1]; 20 μM A2E for 48 hours) | number of rhodopsin-expressing photoreceptors ([1]; varying concentrations of A2E (0, 10, 20, 40 μM), 24 hours, FIG. 7) | survival of ganglion cells ([2]; 20 μM A2E for 48 hours) | number of NFM-expressing ganglion cells versus no stress ([2]; 20 μM A2E, 24 hours, FIG. 8) | total live cell count of rhodopsin-expressing photoreceptors after stress versus before stress [3] | growth and replication of the cells [4]
1 | CC(C=CC1=C(C)CCCC1(C)C)=CC=CC(C)=Cc1cc(C=CC=C(C)C=CC2=C(C)CCCC2(C)C)cc[n+]1CCO [A2E, N-retinylidene-N-retinyl-ethanolamine] | more than 90% | showed a dose response | not adversely affected | not statistically different | much smaller | –
2 | c1ccc2c(c1)cc1ccc3cccc4ccc2c1c34 [benzo(a)pyrene] | – | – | – | – | – | appeared to inhibit growth and replication
